Reference: PubChem BioAssay (NCI)
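Each compound was tested at five concentrations against cells in 96-well plates for 48 hours. GI50 = concentration required for 50% inhibition of growth. TGI denotes the concentration required for complete inhibition of growth.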

What was measured:
Assay in all cases: DTP human tumour cell line panel, 48 h
HCC-2998 colon = test system: HCC-2998 colon
KM12 colon = test system: KM12 colon
TK-10 renal = test system: TK-10 renal
UACC-257 melanoma = test system: UACC-257 melanoma
CCRF-CEM leukemia = test system: CCRF-CEM leukemia
K-562 leukemia = test system: K-562 leukemia
SK-MEL-5 melanoma = test system: SK-MEL-5 melanoma
SR leukemia = test system: SR leukemia
MDA-MB-435 = test system: MDA-MB-435
NCI-H226 lung = test system: NCI-H226 lung

SMILES	TGI (HCC-2998 colon) [µM]	TGI (KM12 colon) [µM]	TGI (TK-10 renal) [µM]	TGI (UACC-257 melanoma) [µM]	TGI (CCRF-CEM leukemia) [µM]	TGI (K-562 leukemia) [µM]	TGI (SK-MEL-5 melanoma) [µM]	TGI (SR leukemia) [µM]	GI50 (CCRF-CEM leukemia) [µM]	GI50 (K-562 leukemia) [µM]	GI50 (KM12 colon) [µM]	GI50 (MDA-MB-435) [µM]	TGI (MDA-MB-435) [µM]	GI50 (NCI-H226 lung) [µM]	TGI (NCI-H226 lung) [µM]	GI50 (SK-MEL-5 melanoma) [µM]	GI50 (TK-10 renal) [µM]	GI50 (UACC-257 melanoma) [µM]	GI50 (HCC-2998 colon) [µM]	GI50 (SR leukemia) [µM]
CCOC(=O)CCc1c(C)c2c(OC(C)=O)cc(OC(C)=O)cc2oc1=O	> 100	> 100	> 100	> 100																
Cc1cc(C)n(CCNCCn2nc(C)cc2C)n1	> 100	> 100	> 100	> 100	> 100	> 100	> 100	> 100												
CN=NN(C)C(=O)NC	> 100	> 100	> 100		> 100	> 100	> 100	> 100												
COc1cc(/C=C2\C(=O)Nc3ccc(F)cc32)cc(OC)c1OC		> 100	> 100	> 100	> 100	> 100	> 100		23.3	5.67	26.2	5.5	> 100	23.7	> 100	17.3	68.5	87.6		
COc1ccc(-c2cc(-c3cccn3C)c(C#N)c(N)n2)cc1OC	> 100	> 100	> 100	> 100		> 100	> 100			55.6	> 100	> 100	> 100	> 100	> 100	> 100	> 100	> 100	> 100	
Cc1[nH][nH]c(=O)c1C=Nc1ccc(-c2nc3ccccc3[nH]2)cc1		89.7	> 100	42.1	> 100	87.2	36.2	97.1	0.066	27.4	18.3	16.8	33.7	33.7	> 100	18	> 100	19.9		39.7
COC(=O)/C=C/C1C(C(=O)OC)C2(C(=O)OC)CCC1(C(=O)OC)N2 (centres undefined)	> 100	> 100	> 100	> 100	> 100	> 100	> 100	> 100							> 100					
CCCCCCCCCc1cc(=O)c2c(O)cccc2o1	> 100	> 100	> 100	> 100	> 100	> 100	46.6	> 100							> 100					
COc1ccc(C2C(C#N)=C(N)OC3=C2COc2ccc(F)cc23)cc1OC (centres undefined)		69.2	60.4	> 100	> 100	> 100	44.9	> 100	47.5	31.8	23.5	23.6	62.3	13.9	51.1	12.9	19.4	41.4		9.09
O=C(O)c1cccc(OCCO)c1		> 100	> 100	> 100		> 100	> 100	> 100					> 100		> 100					
O=C(O)c1c(-c2nccc3ccccc23)[nH]c(-c2ccccc2)c1S(=O)(=O)O		> 100	> 100	> 100	> 100		> 100	> 100					> 100		> 100					
O=S(O)CCCCSSCc1ccccc1CSSCCCCS(=O)O	> 100	59.6	> 100	18.2	42.5	82.3	23.2													
N#CC(C#N)=c1[nH]c2cccc3c2-c2c(cccc2c3=C(C#N)C#N)[nH]1	> 100	> 100	> 100	> 100	> 100	> 100	> 100	> 100							> 100					
Cc1cn2c(/C=C3/C(=O)Nc4ccccc43)c(-c3ccc(Cl)cc3)nc2s1		23.2	17.3	27.8	> 50	> 50	16	39.8	17.6	46.5	10.5	8.07	14.8	7.04	21.3	9.06	8.99	10.5		11.5
CC(=O)OCC1OC([S-])C(OC(C)=O)C(OC(C)=O)C1OC(C)=O.CC[PH+](CC)CC.CC[PH+](CC)CC.[Au].[Au] (centres undefined)	1.95	2.66	1.69	0.937	0.277	0.337	0.346		0.0748	0.0834	1.04			0.244	1.7	0.132	0.717	0.214	0.801	
CCOC(=O)c1[nH]c(COC(C)=O)c(CCCOC(C)=O)c1CCCOC(C)=O	> 100	> 100	> 100	> 100	> 100	> 100		> 100							> 100					
O=C(Nc1cccc(Cl)c1Cl)c1cccc(NC2=C(Cl)C(=O)N(Cc3ccccc3)C2=O)c1		> 100	> 100	72.3	> 100	37.5	> 100	23.5	14	5.32	82.8	20.4	53.2	31.7	> 100	20.1	> 100	23.3		4.16
CCOC(=O)C1N(S(=O)(=O)c2ccc(C)cc2)CCC12C(c1ccc(OC)cc1)NC1CCCCC12 (centres undefined)	> 100	> 100	> 100	> 100	> 100	> 100	> 100								> 100					
CCOC(=O)[C@H](CCCNC(=O)OC(C)(C)C)NCc1ccc(OC)c(OC)c1	> 100	> 100	> 100	> 100	> 100	> 100	> 100	> 100							> 100					
